Experimental data: patent US20170327598A1, “SINGLE DOMAIN ANTIBODIES DIRECTED AGAINST INTRACELLULAR ANTIGENS” (SINGH MOLECULAR MEDICINE, LLC, priority 2014, published 2017)
Several values for one entry are separate records, joined by “and”; a condition that tells them apart may be missing. Identical values can stand only once.

Assays:
Format in all cases: cell-based, human
[1] = tested on: VEGF-A production in ARPE-19 cells; assay: VEGF-A ELISA in ARPE-19 retinal cells, Experiment 2;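 for all read-outs here: confluent ARPE-19 cells in 96-well plates, VEGF-A in culture supernatant quantified by ELISA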; conditions: for Result (pg VEGF-A per mL): single reads; for pg VEGF-A per mL: based on collecting 0.1 ml of supernatant; for Mean (pg VEGF-A per mL): mean of Adj. Result, Wells 1-3; for Mean (pg VEGF-A per μg protein): mean of Wells 1-3; for Mean (pg VEGF-A per μg protein) / % Control: Experiment 2; for % Control: normalized for protein; for Mean Result (pg VEGF-A per mL) / pg VEGF-A per μg protein / Adj. Result (pg VEGF-A per mL): per well; for Adj. Result (pg VEGF-A per mL): adjusted for dilution
BT474 cells = assay: MTT proliferation assay, BT474; conditions: BT474, 72 hours
MCF-7 cells = assay: MTT proliferation assay, MCF-7; conditions: MCF-7, 72 hours

Q: How did the “Result (pg VEGF-A per mL)” value ([1]; 10 μg/well, 12 Hr) turn out when “Anti-STAT3 VHH13: anti-STAT3 single domain antibody, SEQ ID NO:3; bacterially produced form referred to as SBT-100” was run?
A: The value was 29.66 pg VEGF-A per mL and 31.2 pg VEGF-A per mL and 24.52 pg VEGF-A per mL and 24.31 pg VEGF-A per mL and 27.98 pg VEGF-A per mL and 29.18 pg VEGF-A per mL.

Q: And the “% Negative Control” value ([1]; 10 μg/well, 24 Hr)?
A: Its value is 1142%.

Q: And the “pg VEGF-A per mL” value ([1]; 10 μg/well, 24 Hr)?
A: Its value is 28 pg VEGF-A per mL and 34.8 pg VEGF-A per mL and 42.4 pg VEGF-A per mL.

Q: What about the “Mean (pg VEGF-A per mL)” value ([1]; 10 μg/well, 24 Hr) of the same substance?
A: Its value is 350.7 pg VEGF-A per mL.

Q: And the “Mean (pg VEGF-A per μg protein)” value ([1]; 10 μg/well, 24 Hr)?
A: Its value is 5.290 pg VEGF-A per μg protein.

Q: And the “% Control” value ([1]; 10 μg/well, 24 Hr)?
A: Its value is 119.8%.

Q: What about the “Mean Result (pg VEGF-A per mL)” value ([1]; 10 μg/well, 24 Hr) of the same substance?
A: The value was 55.95 pg VEGF-A per mL and 69.61 pg VEGF-A per mL and 84.84 pg VEGF-A per mL.

Q: And the “pg VEGF-A per μg protein” value ([1]; 10 μg/well, 24 Hr)?
A: The value was 4.4 pg VEGF-A per μg protein and 5.4 pg VEGF-A per μg protein and 6.1 pg VEGF-A per μg protein.

Q: And the “Adj. Result (pg VEGF-A per mL)” value ([1]; 10 μg/well, 24 Hr)?
A: The value was 279.74 pg VEGF-A per mL and 348.06 pg VEGF-A per mL and 424.20 pg VEGF-A per mL.

Q: And the “Result (pg VEGF-A per mL)” value ([1]; 10 μg/well, 24 Hr)?
A: The value was 57.85 pg VEGF-A per mL and 54.04 pg VEGF-A per mL and 72.69 pg VEGF-A per mL and 66.53 pg VEGF-A per mL and 84.97 pg VEGF-A per mL and 84.71 pg VEGF-A per mL.

Q: And the “% Negative Control” value ([1]; 10 μg/well, 48 Hr)?
A: The value was 99.3%.

Q: What about the “pg VEGF-A per mL” value ([1]; 10 μg/well, 48 Hr) of the same substance?
A: Its value is 83.7 pg VEGF-A per mL and 95.6 pg VEGF-A per mL and 98.3 pg VEGF-A per mL.

Q: What about the “Mean (pg VEGF-A per mL)” value ([1]; 10 μg/well, 48 Hr) of the same substance?
A: The value was 925.1 pg VEGF-A per mL.

Q: What about the “Mean (pg VEGF-A per μg protein)” value ([1]; 10 μg/well, 48 Hr) of the same substance?
A: The value was 13.696 pg VEGF-A per μg protein.

Q: And the “% Control” value ([1]; 10 μg/well, 48 Hr)?
A: Its value is 104.6%.

Q: And the “Mean Result (pg VEGF-A per mL)” value ([1]; 10 μg/well, 48 Hr)?
A: Its value is 191.17 pg VEGF-A per mL and 196.56 pg VEGF-A per mL and 167.34 pg VEGF-A per mL.

Q: What about the “pg VEGF-A per μg protein” value ([1]; 10 μg/well, 48 Hr) of the same substance?
A: Its value is 11.8 pg VEGF-A per μg protein and 14 pg VEGF-A per μg protein and 15.3 pg VEGF-A per μg protein.

Q: And the “Adj. Result (pg VEGF-A per mL)” value ([1]; 10 μg/well, 48 Hr)?
A: The value was 955.85 pg VEGF-A per mL and 982.81 pg VEGF-A per mL and 836.69 pg VEGF-A per mL.

Q: What about the “Result (pg VEGF-A per mL)” value ([1]; 10 μg/well, 48 Hr) of the same substance?
A: Its value is 194.18 pg VEGF-A per mL and 188.16 pg VEGF-A per mL and 194.77 pg VEGF-A per mL and 198.36 pg VEGF-A per mL and 158.85 pg VEGF-A per mL and 175.83 pg VEGF-A per mL.

Q: What about the “VEGF-A as % of control” value ([1]; 100 μg/mL, 12 hour treatment) of the same substance?
A: The value was 20.1%.

Q: What about the “VEGF-A as % of control” value ([1]; 100 μg/mL, 24 hour treatment) of the same substance?
A: The value was 7.5%.

Q: What about the “pg VEGF-A/m protein as % of the negative control” value ([1]; 100 μg/mL, 48 hours) of the same substance?
A: The value was 11%.

Q: And the “% Negative Control” value ([1]; 100 μg/well, 12 Hr)?
A: The value was 18.5%.

Q: What about the “pg VEGF-A per mL” value ([1]; 100 μg/well, 12 Hr) of the same substance?
A: The value was 2.4 pg VEGF-A per mL and 2.3 pg VEGF-A per mL.

Q: What about the “Mean (pg VEGF-A per mL)” value ([1]; 100 μg/well, 12 Hr) of the same substance?
A: Its value is 23.8 pg VEGF-A per mL.

Q: What about the “Mean (pg VEGF-A per μg protein)” value ([1]; 100 μg/well, 12 Hr) of the same substance?
A: The value was 0.4 pg VEGF-A per μg protein.

Q: What about the “Mean Result (pg VEGF-A per mL)” value ([1]; 100 μg/well, 12 Hr) of the same substance?
A: The value was 4.86 pg VEGF-A per mL and 4.58 pg VEGF-A per mL.

Q: And the “pg VEGF-A per μg protein” value ([1]; 100 μg/well, 12 Hr)?
A: Its value is 0.4 pg VEGF-A per μg protein.

Q: What about the “Adj. Result (pg VEGF-A per mL)” value ([1]; 100 μg/well, 12 Hr) of the same substance?
A: Its value is 24.27 pg VEGF-A per mL and 22.91 pg VEGF-A per mL.

Q: And the “Result (pg VEGF-A per mL)” value ([1]; 100 μg/well, 12 Hr)?
A: The value was 5.09 pg VEGF-A per mL and 4.62 pg VEGF-A per mL and 5.3 pg VEGF-A per mL and 4.41 pg VEGF-A per mL and 4.83 pg VEGF-A per mL and 4.33 pg VEGF-A per mL.

Q: And the “% Negative Control” value ([1]; 100 μg/well, 24 Hr)?
A: The value was 6.3%.

Q: What about the “Mean (pg VEGF-A per mL)” value ([1]; 100 μg/well, 24 Hr) of the same substance?
A: Its value is 19.2 pg VEGF-A per mL.

Q: And the “Mean (pg VEGF-A per μg protein)” value ([1]; 100 μg/well, 24 Hr)?
A: The value was 0.329 pg VEGF-A per μg protein.

Q: And the “% Control” value ([1]; 100 μg/well, 24 Hr)?
A: The value was 7.5%.

Q: And the “pg VEGF-A per μg protein” value ([1]; 100 μg/well, 24 Hr)?
A: Its value is 0.5 pg VEGF-A per μg protein and 0.3 pg VEGF-A per μg protein.

Q: What about the “% Negative Control” value ([1]; 100 μg/well, 48 Hr) of the same substance?
A: Its value is 3.7%.

Q: What about the “pg VEGF-A per mL” value ([1]; 100 μg/well, 48 Hr) of the same substance?
A: Its value is 3.9 pg VEGF-A per mL.

Q: What about the “Mean (pg VEGF-A per mL)” value ([1]; 100 μg/well, 48 Hr) of the same substance?
A: Its value is 35.6 pg VEGF-A per mL.

Q: What about the “Mean (pg VEGF-A per μg protein)” value ([1]; 100 μg/well, 48 Hr) of the same substance?
A: Its value is 1.458 pg VEGF-A per μg protein.

Q: And the “% Control” value ([1]; 100 μg/well, 48 Hr)?
A: Its value is 11.1%.

Q: And the “Mean Result (pg VEGF-A per mL)” value ([1]; 100 μg/well, 48 Hr)?
A: Its value is 5.85 pg VEGF-A per mL and 7.78 pg VEGF-A per mL and 7.76 pg VEGF-A per mL.

Q: And the “pg VEGF-A per μg protein” value ([1]; 100 μg/well, 48 Hr)?
A: The value was 1.4 pg VEGF-A per μg protein and 1.6 pg VEGF-A per μg protein.

Q: And the “Adj. Result (pg VEGF-A per mL)” value ([1]; 100 μg/well, 48 Hr)?
A: The value was 29.23 pg VEGF-A per mL and 38.88 pg VEGF-A per mL and 38.78 pg VEGF-A per mL.

Q: And the “Result (pg VEGF-A per mL)” value ([1]; 100 μg/well, 48 Hr)?
A: The value was 8.03 pg VEGF-A per mL and 5.86 pg VEGF-A per mL and 5.83 pg VEGF-A per mL and 7.83 pg VEGF-A per mL and 7.72 pg VEGF-A per mL and 7.49 pg VEGF-A per mL.

Q: And the “Mean Abs” value (BT474 cells; 0.39 μg/ml)?
A: Its value is 0.322.

Q: And the “Mean Abs” value (BT474 cells; 3.13 μg/ml)?
A: The value was 0.446.

Q: What about the “Mean Abs” value (BT474 cells; 6.25 μg/ml) of the same substance?
A: Its value is 0.469.

Q: What about the “Mean Abs” value (BT474 cells; 25 μg/ml) of the same substance?
A: Its value is 0.256.

Q: And the “Mean Abs” value (BT474 cells; 50 μg/ml)?
A: Its value is 0.145.

Q: What about the “Mean Abs” value (BT474 cells; 100 μg/ml) of the same substance?
A: The value was 0.046.

Q: What about the “Mean Abs” value (BT474 cells; 200 μg/ml) of the same substance?
A: The value was 0.040.

Q: And the “Mean Abs” value (MCF-7 cells; 0.39 μg/ml)?
A: The value was 0.818.

Q: And the “Mean Abs” value (MCF-7 cells; 3.13 μg/ml)?
A: The value was 0.689.

Q: What about the “Mean Abs” value (MCF-7 cells; 6.25 μg/ml) of the same substance?
A: The value was 0.435.

Q: And the “% Inhibition” value (MCF-7 cells; 25 μg/ml)?
A: Its value is 62.1%.

Q: And the “Mean Abs” value (MCF-7 cells; 25 μg/ml)?
A: Its value is 0.212.

Q: And the “% Inhibition” value (MCF-7 cells; 50 μg/ml)?
A: The value was 89.9%.

Q: What about the “Mean Abs” value (MCF-7 cells; 50 μg/ml) of the same substance?
A: The value was 0.057.

Q: What about the “% Inhibition” value (MCF-7 cells; 100 μg/ml) of the same substance?
A: Its value is 93.2%.

Q: And the “Mean Abs” value (MCF-7 cells; 100 μg/ml)?
A: Its value is 0.038.

Q: What about the “% Inhibition” value (MCF-7 cells; 200 μg/ml) of the same substance?
A: The value was 92.9%.

Q: What about the “Mean Abs” value (MCF-7 cells; 200 μg/ml) of the same substance?
A: Its value is 0.040.
